{
  "source": "patent US11964996B2",
  "about": "“2-alkynylmannose derivative and application thereof” (priority 2020, dated 2024)",
  "data": [
    {"molecular_target": "T1, FimH proteins (Escherichia coli, UniProt Q1R2J4)", "T1 construct": "endogenous in cells; host or cells: UPEC strain UTI89 (whole bacteria)", "assay": "hemagglutination inhibition (HAI) assay: UPEC UTI89 with guinea pig red blood cells", "format": "cell-based, uropathogenic Escherichia coli (UPEC) UTI89", "settings": "read-out: HAI EC90 (minimum concentration for inhibiting hemagglutination)", "protocol": "In the present example, the mannose derivatives A1 to A107 that were prepared in Examples 1 to 12 were analyzed in hemagglutination inhibition (HAI) assays to determine inhibitory effects of the compounds on the function/activity of FimH proteins.\n1. Preparation of a guinea pig red blood cell solution: an adult guinea pig was anesthetized with ethyl ether, blood was sampled from the heart, placed in an EDTA blood collection tube, and centrifuged at 2,000 rpm for 5 min, serum was removed, the sample was transferred in a centrifuge tube (15 mL), sterilized PBS was added, the sample was centrifuged at 1,500 rpm for 10 min, a supernatant was removed, the sample was transferred in a centrifuge tube (50 mL), PBS was added, the sample was centrifuged at 1,500 rpm for 10 min and repeatedly washed twice, and red blood cells were slightly aspirated into a new centrifuge tube (50 mL) to obtain a 5% guinea pig red blood cell solution.\n2. Preparation of a bacteria solution: a UPEC cell line UTI89 was inoculated on a medium plate and cultured in an incubator at 37° C. overnight. Single colonies were picked and inoculated in an LB medium in a sterilized conical flask, and cultured at 37° C. and 170 r/min overnight. When an OD value at 540 nm was about 0.8 on a microplate reader, the bacterial concentration was about 10^8-10^9 cfu/mL, the bacteria solution was centrifuged at 2,000 rpm for 10 min, a supernatant was removed, and 1 mL of bacteria solution was prepared into 0.1 mL of PBS bacteria solution. […] The bacteria and the medium were uniformly mixed by shaking, and reacted in an incubator at 25° C. for about 20-40 min. When the plate was read, the wells in which complete agglutination occurred were used as 4HAU for the hemagglutination titer of the bacteria. For example, if the endpoint titer of hemagglutination is 1:256, the dilution multiple of the 4HAU antigen is 1:64 (256 divided by 4). Bacteria solutions at corresponding concentrations were prepared according to the experimental results.\n3. Activity assay: a compound to be tested or a standard product was placed in a 96-well microtest plate, 50 μL of drug at an initial concentration of 200 μM was placed in the first well, and from the second well, 25 μL of PBS was added to each well to dilute the drug in proportion. The drug and the medium in the first well were mixed, 25 μL of mixed drug solution was placed in the second well, the drug solution was diluted in sequence to the last well, and 25 μL of drug solution was removed. 25 μL of bacteria solution was placed in each well of the culture plate containing the diluted drug, and cultured at 37° C. for 40 min. 25 μL of 5% guinea pig red blood cell suspension was placed in each well, and slightly uniformly mixed with the drug, and the plate was placed at 4° C. for about 1 h. When results were determined, the plate was tilted 60°, and whether the red blood cells flowed like teardrops was observed.\nMannosyl proteins are expressed on the surface of red blood cells in a guinea pig, which can bind to FimH proteins of UTI89 to cause hemagglutination. It can be observed with the naked eyes that the red blood cells form film-like agglutination at the bottom of the well, and loose red dots can be seen in the center. The FimH protein inhibitor competitively binds to FimH proteins to inhibit hemagglutination. It can be observed with the naked eyes that all the red blood cells sink and concentrate at the bottom of the well to form dense dots. The minimum concentration for inhibiting hemagglutination is expressed as an EC90 value of a compound. The final concentration of the compound in the first well is 66700 nM, the concentration in the second well is half that in the first well, the concentration in the third well is half that in the second well, and so on. […] A low EC90 value indicates high activity of a compound.", "units": {"EC90": "nM"}, "values": [
      {"smiles": "COCCOc1ccc(-n2cc(C#C[C@H]3O[C@H](CO)[C@@H](O)[C@H](O)[C@@]3(O)C#CC3CC3)cn2)cc1", "note": "[Compound A98]", "EC90": "< 0.1"},
      {"smiles": "OC[C@H]1O[C@H](C#Cc2cnn(-c3ccc(O[C@@H]4CCOC4)cc3)c2)[C@](O)(C#CC2CC2)[C@@H](O)[C@@H]1O", "note": "[Compound A99]", "EC90": "< 0.1"},
      {"smiles": "OC[C@H]1O[C@H](C#Cc2cnn(-c3ccc(O[C@H]4CCOC4)cc3)c2)[C@](O)(C#CC2CC2)[C@@H](O)[C@@H]1O", "note": "[Compound A100]", "EC90": "< 0.1"},
      {"smiles": "OC[C@H]1O[C@H](C#Cc2cnn(-c3cccc(F)c3)c2)[C@](O)(C#Cc2ccccc2)[C@@H](O)[C@@H]1O", "note": "[Compound A101]", "EC90": 0.25},
      {"smiles": "COCCOc1ccc(-n2cc(C#C[C@H]3O[C@H](CO)[C@@H](O)[C@H](O)[C@@]3(O)C#Cc3ccccc3)cn2)cc1", "note": "[Compound A102]", "EC90": "< 0.1"},
      {"smiles": "OC[C@H]1O[C@H](C#Cc2cnn(-c3ccc(O[C@@H]4CCOC4)cc3)c2)[C@](O)(C#Cc2ccccc2)[C@@H](O)[C@@H]1O", "note": "[Compound A103]", "EC90": "< 0.1"},
      {"smiles": "OC[C@H]1O[C@H](C#Cc2cnn(-c3ccc(O[C@H]4CCOC4)cc3)c2)[C@](O)(C#Cc2ccccc2)[C@@H](O)[C@@H]1O", "note": "[Compound A104]", "EC90": "< 0.1"},
      {"smiles": "OC[C@H]1O[C@H](C#Cc2cnn(-c3ccc(C4CC4)cc3)c2)[C@](O)(C#CC2CC2)[C@@H](O)[C@@H]1O", "note": "[Compound A105]", "EC90": 0.13},
      {"smiles": "CCOc1ccc(-n2cc(C#C[C@H]3O[C@H](CO)[C@@H](O)[C@H](O)[C@@]3(O)C#CC3CC3)cn2)cc1", "note": "[Compound A106]", "EC90": "< 0.1"},
      {"smiles": "CC(C)Oc1ccc(-n2cc(C#C[C@H]3O[C@H](CO)[C@@H](O)[C@H](O)[C@@]3(O)C#CC3CC3)cn2)cc1", "note": "[Compound A107]", "EC90": "< 0.1"}
    ]}
  ]
}
